Laboratory results reported in PubChem BioAssay AID1963863 (Molecular Pharmacology Branch, DTP, NCI, 2024).

System: 931267-113-T-J1-PDC KRAS spheroid with HUVEC/MSC, viability
Assay: Anticancer human tumor 931267-113-T-J1-PDC patient-derived colon adenocarcinoma cell line growth inhibition [KRAS2]
Conditions: for IC50: curve of first compound; for viability, T/C: stronger effect = lower value
Source text: Multicellular complex tumor spheroid response to RAS pathway inhibitors in combination with a targeted agents in patient-derived cell lines with oncogenic KRAS variants from multiple cancer types
A high-throughput screen of multi-cell type tumor spheroids was designed to identify active combinations of targeted small molecules and KRAS pathway inhibitors. Complex spheroids include a stromal component modeled by human endothelial cells (HUVEC) and fibroblasts modeled by human mesenchymal stem cells (MSCs). The concentration ranges selected for each drug and investigational agent were based upon clinically achievable concentrations if the clinical Cmax of the agent was known.
Compounds. The drugs and investigational agents: BI-3406 (NSC825286), BAY-293 (NSC824723), batoprotafib (TNO155; NSC825523), sotorasib (AMG 510; NSC818433), MRTX1257 (NSC819558), elimusertib (BAY 1895344; NSC800525), molibresib (GSK525762; NSC774829), temuterkib (LY3214996; NSC803410), venetoclax (NSC766270), alisertib (NSC759677), olaparib (NSC753686), talazoparib (NSC767125), erdafitinib (NSC781556), ipatasertib (NSC767898), cabozantinib (NSC761068), nintedanib (NSC756659), abemaciclib (NSC768073), docetaxel (NSC628503), trametinib (NSC758246), and sapanisertib (NSC764658) were obtained from the National Cancer Institute (NCI) Developmental Therapeutics Program Chemical Repository. The FDA-approved anticancer drug set is available from the Developmental Therapeutics Program. […] The stock solutions were prepared in dimethyl sulfoxide (DMSO, Sigma-Aldrich, St. Louis, MO, cat. D2650) at 800-fold the tested concentration and stored at -70 degrees C prior to their use. All drugs and investigational agents were tested over a range starting from a high concentration at or near the clinical Cmax and decreasing in half-log increments. If the clinical Cmax for an agent had not been determined, the highest concentration tested was 10 microM.
Cell Culture. All cells were maintained in an incubator at 37 degrees C and 5% CO2 with 95% humidity. The PDC lines were cultured according to standard operating procedures established by the NCI PDMR (https://pdmr.cancer.gov/sops/default.htm). Briefly, all PDCs were thawed and cultured in Matrigel-coated flasks prepared with a working solution of 1X Ham's F-12 nutrient mix, without supplementation (Invitrogen, Waltham, MA, cat. 11765054), 100 U/mL penicillin-streptomycin (Invitrogen, cat. 15140122), and 2.5% Matrigel (Corning Inc., Corning, NY, cat. 354248) for the first three passages. All PDCs were cultured in complete DMEM/F-12 media containing advanced DMEM/F-12 (Invitrogen, cat. 12634028), 4.9% defined fetal bovine serum, heat inactivated (HyClone Laboratories Inc., Logan, UT, cat. SH30070.03HI), 389 ng/mL hydrocortisone (Sigma-Aldrich, cat. H4001), 9.7 ng/mL human EGF recombinant protein (Invitrogen, cat. PHG0313), 23.4 microg/mL adenine (Sigma-Aldrich, cat. A2786), 97.3 U/mL penicillin-streptomycin (Invitrogen, cat. 15140122), 1.9 mM L-glutamine (Invitrogen, cat. 25030081), and 9.7 microM Y-27632 dihydrochloride (Tocris Bioscience, Bristol, United Kingdom, cat. 1254). The PDCs were cultured in complete DMEM/F12 media without 9.7 microM Y-27632 dihydrochloride for at least two passages prior to the screen. The established cell line HOP-62 was cultured in RPMI 1640 medium, HEPES (Invitrogen, cat. 22400105) with 10% defined fetal bovine serum (HyClone Laboratories Inc., cat. SH30070.03) and 2 mM L-glutamine (Invitrogen, cat. 25030081). The pooled donor HUVEC were cultured in endothelial cell growth medium 2 (PromoCell, Heidelberg, Germany, cat. C-22011) and the hMSC were cultured in mesenchymal stem cell growth medium 2 (PromoCell, cat. C-28009). For all experiments, HUVEC and hMSC were used at passages </=5, while the malignant cell lines were used at passages </=15. […]

[1] = second compound 0.1 µM, first compound 0.0316 µM
[2] = second compound 0.1 µM, first compound 0.1 µM
[3] = second compound 0.1 µM, first compound 0.316 µM
[4] = second compound 0.1 µM, first compound 1 µM
[5] = second compound 0.1 µM, first compound 3.16 µM
[6] = second compound 0.1 µM, first compound 10 µM
[7] = second compound 0.316 µM, first compound 0.0316 µM
[8] = second compound 0.316 µM, first compound 0.1 µM
[9] = second compound 0.316 µM, first compound 0.316 µM
[10] = second compound 0.316 µM, first compound 1 µM
[11] = second compound 0.316 µM, first compound 3.16 µM
[12] = second compound 0.316 µM, first compound 10 µM
[13] = second compound 1 µM, first compound 0.0316 µM
[14] = second compound 1 µM, first compound 0.1 µM
[15] = second compound 1 µM, first compound 0.316 µM
[16] = second compound 1 µM, first compound 1 µM
[17] = second compound 1 µM, first compound 3.16 µM
[18] = second compound 1 µM, first compound 10 µM
[19] = second compound 3.16 µM, first compound 0.0316 µM
[20] = second compound 3.16 µM, first compound 0.1 µM
[21] = second compound 3.16 µM, first compound 0.316 µM
[22] = second compound 3.16 µM, first compound 1 µM
[23] = second compound 3.16 µM, first compound 3.16 µM
[24] = second compound 3.16 µM, first compound 10 µM
[25] = second compound 10 µM, first compound 0.0316 µM
[26] = second compound 10 µM, first compound 0.1 µM
[27] = second compound 10 µM, first compound 0.316 µM
[28] = second compound 10 µM, first compound 1 µM
[29] = second compound 10 µM, first compound 3.16 µM
[30] = second compound 0.1 µM, first compound 0.01 µM
[31] = second compound 0.316 µM, first compound 0.01 µM
[32] = second compound 1 µM, first compound 0.01 µM
[33] = second compound 3.16 µM, first compound 0.01 µM
[34] = second compound 0.0316 µM, first compound 0.0316 µM
[35] = second compound 0.0316 µM, first compound 0.1 µM
[36] = second compound 0.0316 µM, first compound 0.316 µM
[37] = second compound 0.0316 µM, first compound 1 µM
[38] = second compound 0.0316 µM, first compound 3.16 µM
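Also: compound exposure lasted 7 days before the readout.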
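For viability, T/C in this document: 100% = DMSO vehicle control viability.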

| Compound | IC50 (second compound 0.1 µM) | IC50 (second compound 0.316 µM) | IC50 (second compound 1 µM) | IC50 (second compound 3.16 µM) | viability, T/C [1] | viability, T/C [2] | viability, T/C [3] | viability, T/C [4] | viability, T/C [5] | viability, T/C [7] | viability, T/C [8] | viability, T/C [9] | viability, T/C [10] | viability, T/C [11] | viability, T/C [13] | viability, T/C [14] | viability, T/C [15] | viability, T/C [16] | viability, T/C [17] | viability, T/C [19] | further results |
| --- | --- | --- | --- | --- | --- | --- | --- | --- | --- | --- | --- | --- | --- | --- | --- | --- | --- | --- | --- | --- | --- |
| Cn1nccc1Nc1nccc(-c2cc3c(s2)C(C)(C)N(CCN2CCOCC2)C3=O)n1 + COc1cc2nc(C)nc(NC(C)c3cc(N)cc(C(F)(F)F)c3)c2cc1OC1CCOC1 | 451 nM | 517 nM | 464 nM | 229 nM | 80.2% | 95.3% | 54% | 29.5% | 9.12% | 84.6% | 88.2% | 62.7% | 31.2% | 4.2% | 79.8% | 73.6% | 62.6% | 26.2% | 8.33% | 71.3% | IC50 (second compound 10 µM): < 31.6 nM; viability, T/C [6]: 3.49%; viability, T/C [12]: 2.13%; viability, T/C [18]: 2.61%; viability, T/C [20]: 68.4%; viability, T/C [21]: 42.4%; viability, T/C [22]: 15.5%; viability, T/C [23]: 3.42%; viability, T/C [24]: 2.28%; viability, T/C [25]: 3.64%; viability, T/C [26]: 2.94%; viability, T/C [27]: 2.42%; viability, T/C [28]: 1.97%; viability, T/C [29]: 0.91%; viability, T/C (second compound 10 µM, first compound 10 µM): 0.28% |
| CC(=O)OC12COC1CC(O)C1(C)C(=O)C(O)C3=C(C)C(OC(=O)C(O)C(NC(=O)OC(C)(C)C)c4ccccc4)CC(O)(C(OC(=O)c4ccccc4)C21)C3(C)C (stereo not given) + CC1OCC2(CCN(c3cnc(Sc4ccnc(N)c4Cl)c(N)n3)CC2)C1N | > 3160 nM | > 3160 nM | > 3160 nM | 289 nM | 90.5% | 74.8% | 80% | 86.2% | 91.4% | 90.5% | 64.9% | 65.4% | 78.6% | 58.5% | 111% | 108% | 82.8% | 79.5% | 93.2% | 74.3% | IC50 (second compound 10 µM): 278 nM; viability, T/C [30]: 88.4%; viability, T/C [31]: 74.8%; viability, T/C [32]: 95.2%; viability, T/C [33]: 52.3%; viability, T/C [20]: 53%; viability, T/C [21]: 50.6%; viability, T/C [22]: 48.9%; viability, T/C [23]: 49.7%; viability, T/C (second compound 10 µM, first compound 0.01 µM): 59%; viability, T/C [25]: 63.4%; viability, T/C [26]: 66.8%; viability, T/C [27]: 38%; viability, T/C [28]: 50.4%; viability, T/C [29]: 56.6% |
| COc1cc2nccc(Oc3ccc(NC(=O)C4(C(=O)Nc5ccc(F)cc5)CC4)cc3)c2cc1OC + C=CC(=O)N1CCN(c2nc(OCC3CCCN3C)nc3c2CCN(c2cccc4cccc(C)c24)C3)CC1CC#N | > 10000 nM | > 10000 nM | 2470 nM | < 31.6 nM | 107% | 97.9% | 106% | 104% | 66.6% | 108% | 119% | 108% | 110% | 71.9% | 92.3% | 101% | 92.8% | 104% | 37% | 16.2% | IC50 (second compound 0.0316 µM): > 10000 nM; viability, T/C [34]: 107%; viability, T/C [35]: 98.3%; viability, T/C [36]: 95.2%; viability, T/C [37]: 98.7%; viability, T/C [38]: 64.7%; viability, T/C (second compound 0.0316 µM, first compound 10 µM): 59.5%; viability, T/C [6]: 50.9%; viability, T/C [12]: 51.8%; viability, T/C [18]: 15.6%; viability, T/C [20]: 13.8%; viability, T/C [21]: 0.57%; viability, T/C [22]: 0.23%; viability, T/C [23]: 2.35%; viability, T/C [24]: 0.23% |
| CC1COCCN1c1cc(-c2ccnn2C)c2ccnc(-c3ccn[nH]3)c2n1 (stereo not given) + C=CC(=O)N1CCN(c2nc(OCC3CCCN3C)nc3c2CCN(c2cccc4cccc(C)c24)C3)CC1CC#N | 45.4 nM | 39.8 nM | 25.6 nM | < 10 nM | 62.8% | 22.2% | 18.6% | 21.6% | 21.5% | 56.4% | 24.7% | 16.8% | 18.9% | 24.5% | 41.3% | 12% | 12.8% | 21.3% | 24.1% | 0.19% | IC50 (second compound 0.0316 µM): 44.1 nM; viability, T/C (second compound 0.0316 µM, first compound 0.01 µM): 90.9%; viability, T/C [34]: 59%; viability, T/C [35]: 27.8%; viability, T/C [36]: 19.2%; viability, T/C [37]: 18.1%; viability, T/C [38]: 18%; viability, T/C [30]: 122%; viability, T/C [31]: 75.6%; viability, T/C [32]: 88.9%; viability, T/C [33]: 0.25%; viability, T/C [20]: 0.38%; viability, T/C [21]: 0.14%; viability, T/C [22]: 0.14%; viability, T/C [23]: 0.94% |
